# Data reported in patent publication EP0588799B1, “NEW SULPHONAMIDES, PROCESS FOR PREPARING THE SAME AND MEDICAMENTS CONTAINING THESE COMPOUNDS” (BOEHRINGER MANNHEIM GMBH, priority 1991, dated 1992).
# How the values were obtained:
# Plasma-LDL = assay: Stabilisation of plasma LDL: prolongation of the lag phase of Cu(II)-induced oxidation (diene formation at A 234); assay type: biochemical, human; settings: for Stabilisierung v. Plasma LDL: Verlängerung der "lag-Phase": 3 molecules test substance per LDL particle, LDL 125 µg protein/ml, 10 µM CuCl2, pH 8, 42° C
# Procedure: Stabilisierung von Plasma-LDL (nach Huber et al. (1990) Free Rad. Res. Comms. 8, 167-173)
# LDL (125 µg Protein/ml) wurde in 20 mM Tris-Cl pH 8, 150 mM NaCl, 10 µM CuCl2 mit und ohne Testverbindung (gelöst in Äthanol, Äthanolendkonzentration 0,5 %) bei 42° C oxidiert. Es wurden jeweils 3 Moleküle Testsubstanz pro LDL-Partikel eingesetzt. Die Oxidation wurde kontinuierlich photometrisch bei A 234 durch die Messung der Dienbildung verfolgt. Die sogenannte "lag Phase" ist als dasjenige Zeitintervall definiert, das sich aus dem Schnittpunkt der Tangente der Kurve während der Propagationsreaktion der Lipidperoxidation und der Zeitachse ergibt.
# P 388 D.1 Makrophagen = assay: Inhibition of cholesterol ester formation in macrophages (after Huber et al.); assay type: cell-based; settings: P 388 D.1 macrophages; for Hemmung der Cholesterinesterbildung in Macro- (P388D.1): 18 h incubation, F-10 medium + 1 µM Cu(II) + 50 µg/ml LDL + 5 % FCS, test concentration not given
# Procedure: Hemmung der Cholesterinesterbildung in Makrophagen (nach Huber et al. (1990) Free Rad. Res. Comms. 8, 167-173)
# Humanplasma-LDL wurde durch sequentielle Ultrazentrifugation bei präselekierten Dichten aus dem Plasma gesunder männlicher Nichtraucher isoliert und für 5 h bei 37° C in F-10 Medium + 1µM Cu(II) zur Depletion seiner lipophilen Antioxidantien inkubiert. Die Bildung von Cholesterinestern in P 388 D.1 Makrophagen unter Einfluß von konditioniertem human Plasma-LDL wurde nach 18 h Inkubation der Zellen (2 x 10^6/ml) in F-10 Medium + 1 µM Cu(II) + 50 µg/ml LDL + 5 % FCS nach Extraktion der Neutral fette dünnschichtchromatographisch gemessen.
smiles,measurement,setting,value
CC(C)(C)c1cc(CNS(=O)(=O)c2cc(C(C)(C)C)c(O)c(C(C)(C)C)c2)cc(C(C)(C)C)c1O [Beispiel 3.11],"Stabilisierung v. Plasma LDL: Verlängerung der ""lag-Phase""",Plasma-LDL,79
same,Hemmung der Cholesterinesterbildung in Macro- (P388D.1),P 388 D.1 Makrophagen,-66.7
"CC(C)(Sc1cc(C(C)(C)C)c(O)c(C(C)(C)C)c1)Sc1cc(C(C)(C)C)c(O)c(C(C)(C)C)c1 [Probucol, reference compound]",verlängern die lag-Phase von LDL,"Plasma-LDL; reference substance, 3 molecules/LDL particle",10%
same,Hemmung der Chol-ester-bildung,"P 388 D.1 Makrophagen; reference substance, 10 /uM, n=7",25-42%
"Cc1cc(C(C)(C)C)c(O)c(S(=O)(=O)NCc2ccccc2)c1 [Beispiel 2.2, (3-^tButyl-2-hydroxy-5-methyl)benzolsulfo-benzylamid]",Hemmung der Cholesterinesterbildung in Macro- (P388D.1),P 388 D.1 Makrophagen,-64.1
CC(C)(C)c1cc(CCNS(=O)(=O)c2cc(C(C)(C)C)c(O)c(C(C)(C)C)c2)cc(C(C)(C)C)c1O [Beispiel 3.12],Hemmung der Cholesterinesterbildung in Macro- (P388D.1),P 388 D.1 Makrophagen,-63.4
"CC(C)(C)c1cc(S(=O)(=O)NCc2ccccc2)cc(C(C)(C)C)c1O [1b).2, (3,5-Di-^tbutyl-4-hydroxy)benzolsulfo-benzylamid]","Stabilisierung v. Plasma LDL: Verlängerung der ""lag-Phase""",Plasma-LDL,8
same,Hemmung der Cholesterinesterbildung in Macro- (P388D.1),P 388 D.1 Makrophagen,"-73,0"
CC(C)(C)c1cc(NS(=O)(=O)c2cc(C(C)(C)C)c(O)c(C(C)(C)C)c2)cc(C(C)(C)C)c1O [Beispiel 3.10],Hemmung der Cholesterinesterbildung in Macro- (P388D.1),P 388 D.1 Makrophagen,-77.4
CC(C)(C)c1cc(CCCNS(=O)(=O)c2cc(C(C)(C)C)c(O)c(C(C)(C)C)c2)cc(C(C)(C)C)c1O [Beispiel 3.13],Hemmung der Cholesterinesterbildung in Macro- (P388D.1),P 388 D.1 Makrophagen,-72.6
